Where two headings read alike, the source gives them in different places.
Experiments:
[1] = test system: distention-induced rhythmic bladder contraction; assay: Distention-induced rhythmic bladder contraction in anesthetized female rats; type: in vivo, SD rats; settings: iv, single dosing, urethane-anesthetized female rats
Method: • OXY, 0.01, 0.03, 0.1 mg/kg, iv; […].
Next, combination dosing regimens shown below in Table 7 were conducted to compose an isobologram. There were 9 groups in total. ID20 values of OXY and CL was calculated in each combination rate.

[2] = test system: EFS-induced isolated detrusor muscle contractions; assay: EFS-induced contraction of isolated rat detrusor muscle strips, with isobologram analysis; set-up: species or system Sprague-Dawley rats; settings: single compound, rat bladder strips, EFS
Method: Male adult Sprague-Dawley rats were used. After euthanizing using CO2 gas, a whole bladder was removed. Longitudinal strips (about 6 mm×3 mm) of the extratrigonal portion of the detrusor muscle were prepared. […] The strips were tied at one end to the organ bath, and connected at the other end to an isometric transducer (AD Instruments) under a resting tension of 10 mN. The responses of the preparations were recorded at a sampling rate of 10 Hz by a multiple channel data acquisition system (PowerLab, AD Instruments), and measured with an analysis software (Chart, AD Instruments). After the equilibration period for at least 60 min, each tissue strip was challenged to electrical field stimulation (EFS) at 60 Hz; duration, 0.3 ms; 3 sec; 90 V to induce contractions. Upon obtaining stable contractions with EFS, compound solution (25 μL) was applied into organ bath in a cumulative manner. After 15 min of each compound treatment, EFS was applied.
Isobologram Analysis was used to evaluate the synergic effect of a combination therapy. Isobologram Analysis provides a visual assessment of the interaction of two different agents using independent statistical analysis. The statistical analysis can be accomplished from calculations of certain potency indices from single treatment of each compound and fixed-ratio combinations for the same effect.
Isobologram for some particular effect (e.g., 50% of the maximum) in which the dose of active agent A alone is A=20 and active agent B alone is B=100. The straight line connecting these intercept points (additivity line) is the locus of all dose pairs that, based on these potencies, should give the same effect, An actual dose pair such as point Q attains this effect with lesser quantities and is synergistic (or super-additive), while the dose pair denoted by point R means greater quantities are required and is therefore sub-additive.

[3] = biological target: T1, muscarinic receptor M1 (Homo sapiens, UniProt P11229); settings: read-out: Ki (nM) M1, cited from earlier work
T1 sequence (P11229 1-460): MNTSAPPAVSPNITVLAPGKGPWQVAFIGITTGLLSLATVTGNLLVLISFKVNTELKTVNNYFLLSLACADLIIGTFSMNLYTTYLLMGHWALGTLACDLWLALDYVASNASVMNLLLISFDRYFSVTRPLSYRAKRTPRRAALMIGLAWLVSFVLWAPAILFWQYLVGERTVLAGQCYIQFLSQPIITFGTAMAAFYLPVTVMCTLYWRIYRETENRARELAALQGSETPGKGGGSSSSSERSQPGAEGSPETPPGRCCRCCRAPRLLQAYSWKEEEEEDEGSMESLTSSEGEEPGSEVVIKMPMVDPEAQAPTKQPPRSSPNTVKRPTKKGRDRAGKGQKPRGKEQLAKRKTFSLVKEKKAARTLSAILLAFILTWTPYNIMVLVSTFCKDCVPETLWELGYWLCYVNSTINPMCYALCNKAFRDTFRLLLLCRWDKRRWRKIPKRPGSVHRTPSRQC

[4] = biological target: T2, muscarinic receptor M2 (Homo sapiens, UniProt P08172); settings: Ohtake et al.; cited from earlier work
T2 sequence (P08172 1-466): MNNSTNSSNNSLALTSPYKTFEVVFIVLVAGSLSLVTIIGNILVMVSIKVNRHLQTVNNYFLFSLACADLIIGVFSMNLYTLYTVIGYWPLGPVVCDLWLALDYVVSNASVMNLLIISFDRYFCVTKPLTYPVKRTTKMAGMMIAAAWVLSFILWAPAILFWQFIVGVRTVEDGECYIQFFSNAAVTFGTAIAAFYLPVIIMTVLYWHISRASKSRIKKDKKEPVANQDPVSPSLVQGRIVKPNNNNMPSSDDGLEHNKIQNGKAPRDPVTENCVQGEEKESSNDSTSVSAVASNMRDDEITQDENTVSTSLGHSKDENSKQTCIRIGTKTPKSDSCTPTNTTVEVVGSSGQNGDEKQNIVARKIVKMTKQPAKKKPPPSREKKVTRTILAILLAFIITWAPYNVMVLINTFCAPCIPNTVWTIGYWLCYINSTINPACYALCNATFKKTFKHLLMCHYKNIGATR

[5] = biological target: T3, muscarinic receptor M4 (Homo sapiens, UniProt P08173); settings: Ohtake et al.; cited from earlier work
T3 sequence (P08173 1-479): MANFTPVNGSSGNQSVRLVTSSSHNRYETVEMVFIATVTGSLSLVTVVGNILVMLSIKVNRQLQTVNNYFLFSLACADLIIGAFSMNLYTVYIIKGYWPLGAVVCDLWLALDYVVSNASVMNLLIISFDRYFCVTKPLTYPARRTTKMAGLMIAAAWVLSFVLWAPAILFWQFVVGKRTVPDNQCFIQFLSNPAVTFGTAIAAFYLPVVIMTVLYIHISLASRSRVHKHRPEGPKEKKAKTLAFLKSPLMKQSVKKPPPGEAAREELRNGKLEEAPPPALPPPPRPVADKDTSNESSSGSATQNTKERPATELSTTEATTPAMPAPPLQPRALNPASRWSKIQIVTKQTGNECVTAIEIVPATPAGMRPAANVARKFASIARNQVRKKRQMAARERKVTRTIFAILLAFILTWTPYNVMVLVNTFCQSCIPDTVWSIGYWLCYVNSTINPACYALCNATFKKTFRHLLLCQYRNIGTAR

[6] = biological target: T4, muscarinic receptor M3 (Homo sapiens, UniProt P20309); settings: cited from earlier work
T4 sequence (P20309 whole entry): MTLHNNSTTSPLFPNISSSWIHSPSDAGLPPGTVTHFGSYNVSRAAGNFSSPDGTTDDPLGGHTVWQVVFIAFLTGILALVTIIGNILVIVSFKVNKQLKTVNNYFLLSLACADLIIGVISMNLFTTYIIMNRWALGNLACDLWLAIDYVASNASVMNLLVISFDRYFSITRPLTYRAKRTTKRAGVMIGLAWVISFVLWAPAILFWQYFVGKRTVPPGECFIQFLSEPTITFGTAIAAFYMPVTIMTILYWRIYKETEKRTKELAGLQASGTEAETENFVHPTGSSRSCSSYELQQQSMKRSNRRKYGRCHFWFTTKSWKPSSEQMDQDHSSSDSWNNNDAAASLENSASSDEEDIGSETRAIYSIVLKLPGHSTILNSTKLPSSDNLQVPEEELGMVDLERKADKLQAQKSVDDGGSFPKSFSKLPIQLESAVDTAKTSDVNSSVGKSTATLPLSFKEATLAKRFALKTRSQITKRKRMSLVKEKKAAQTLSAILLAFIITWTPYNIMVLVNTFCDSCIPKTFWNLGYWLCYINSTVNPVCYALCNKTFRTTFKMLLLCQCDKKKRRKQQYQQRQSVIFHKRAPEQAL

[7] = test system: bladder capacity; assay: Bladder capacity (cystometry) in anesthetized rhesus monkeys; type: in vivo, rhesus monkeys (Macaca mulatta); settings: mean of 4-6 animals
Source text: Adult female rhesus monkeys (Macaca mulatta) weighed 5.3-6.2 kg (4-7 year-old) were used. The subjects were either paired or individually housed on a 12-h light/12-h dark cycle (lights on at 7:00 AM). Their diet consisted of 2050 Teklad (Harlan Laboratories, Indianapolis, Ind.) and fresh fruit or vegetable. Water was freely available. All animals were observed daily by a veterinary technician and caretakers for signs of ill health. Subjects were repeatedly used with >13-day resting period. Monkeys were anesthetized with an intramuscular injection of either Telazol (3-5 mg/kg) or ketamine (10-20 mg/kg) followed by intravenous constant rate infusion with ketamine (0.2-0,8 mg/kg/min) using a syringe pump (552222, Harvard Apparatus, Holliston, Mass.). Animals were placed in a supine position and a triple lumen balloon transurethral catheter (7.4 Fr, Cook Medical, Bloomington, Ind.) was inserted into the bladder and the balloon was inflated with 1 mL of water to secure the tip of catheter at the bladder base. The catheter was connected with an infusion pump (Gemini PC-2TX, ALARIS Medical Systems, San Diego, Calif.) for bladder filling and a pressure transducer for intravesical pressure monitoring. Intravesical pressure was continuously recorded using a multiple channel data acquisition system (Power lab, AD Instruments, Biopac systems, Colorado Springs, Colo.) at a sampling rate of 20 Hz. After confirming bladder emptiness by an ultrasonography (Logiq e vet, GE Medical Systems, Waukesha, Wis., FIG. 1A), saline was intravesically infused at 15 mL/min. When the steep rise in pressure indicative of the micturition reflex was observed, intravesical infusion was stopped and the bladder was manually emptied with a 60 ml syringe.
After two baseline cystometry readings, drug was intravenously administered three times using a rising dose paradigm with a cystometry performed 10 min after each dose. Bladder capacity was measured for each cystometry and % change from the baseline capacity was calculated. As used herein, the term “baseline capacity” or “baseline” means the average bladder capacity from two pre-dose measurements.
The reported results are mean values of % change from baseline in 4-6 animals.

[8] = biological target: T2, muscarinic receptor M2; settings: Hegde et al.; cited from earlier work
[9] = biological target: T1, muscarinic receptor M1; settings: Hegde et al.; cited from earlier work
[10] = biological target: T4, muscarinic receptor M3; settings: Hegde et al.; cited from earlier work

SMILES	ID20 (dose decreasing amplitude by 20%) [1] [MPK]	IC25 (concentration which induced 25% inhibition of detrusor contraction) [2] [nM]	Ki [4] [nM]	Ki [5] [nM]	Ki ([6]; Ohtake et al.) [nM]	Ki [3] [nM]	further results
C[C@H](Cc1ccc2c(c1)OC(C(=O)[O-])(C(=O)[O-])O2)NC[C@H](O)c1cccc(Cl)c1.[Na+].[Na+] [CL316243, disodium (R,R)-5-(2-((2-(3-ehlorophenyl)-2-hydroxyethyl)-amino)propyl)-1,3-benzodioxole-2,3-dicarboxylate]	0.024	2.86					
CCN(CC)CC#CCOC(=O)C(O)(c1ccccc1)C1CCCCC1 (centres unmarked) [Oxybutynin, 4-diethylaminobut-2-ynyl2-cyclohexyl-2-hydroxy-2-phenyl-ethanoate]	0.057						
CCCOC(C(=O)OC1CCN(C)CC1)(c1ccccc1)c1ccccc1 [Propiverine]			1400 ± 220	900 ± 200	350 ± 53		Ki ([3]; Ohtake et al.): 490 ± 110 nM; M2/M3 ratio ([6]; Ohtake et al., ratio of Ki M2 to Ki M3): 4
O=C(O[C@H]1CN2CCC1CC2)N1CCc2ccccc2[C@@H]1c1ccccc1 [Solifenacin]			170 ± 37	110 ± 45	12 ± 4.4	26 ± 2	M2/M3 ratio [6]: 14
Cc1ccc(O)c([C@@H](CCN(C(C)C)C(C)C)c2ccccc2)c1 [Tolterodine, 2-[(1S)-3-(diisopropylamino)-1-phenylpropyl]-4-methylphenol]		4.71		6.6 ± 1.7		2.7 ± 0.23	Bladder capacity, % change from baseline ([7]; mono-therapy 0.01 mg/kg iv, listed as TOL): 8.6%; Bladder capacity, % change from baseline ([7]; mono-therapy 0.03 mg/kg iv, listed as TOL): 16.8%; Bladder capacity, % change from baseline ([7]; mono-therapy 0.1 mg/kg iv): 40.3%
O=C(O[C@H]1C[C@H]2CC[C@@H](C1)[N+]21CCCC1)C(O)(c1ccccc1)c1ccccc1 [Trospium]							Ki [8]: 0.65 nM; Ki [9]: 0.75 nM; Ki [10]: 0.5 nM; M2/M3 ratio [10]: 1
